Experimental data reported in patent US7485759B2, “Minimization of ligand degradation products, or reversion of same to useful phosphine ligands” (Dow Technology Investments LLC, priority 2003, dated 2009).

Key:
[1] = Batch hydroformylation of soy oil methyl esters; average rate of phosphonium ligand degradation product formation by 31P NMR (Comparative Experiment 5, Example 5); type: physicochemical; details: 30 psig, reaction time 4 days
Experimental: The hydroformylation of soy oil methyl esters was conducted at 100° C. for comparative purposes to illustrate the effect of temperature on the formation of ligand degradation products. Under a nitrogen atmosphere, a hydroformylation catalyst solution was prepared containing Ligand A (2.208 g, 5.866 mmol, initial ligand concentration in the reactor: 0.10M), Rh(CO)2acac (0.0366 g, 0.142 mmol), and 1-methyl-2-pyrrolidone (NMP, 16.05 g). Ligand A, the mono-sulfonated sodium salt of bis(dicyclohexyl)phenylphosphine, has the following structure.
Also prepared under nitrogen was a neat solution of soybean oil-derived methyl esters (33.95 g, 115.08 mmol), prepared by the transesterification of soybean oil with methanol using standard methods known in the art. Soybean oil contains polyunsaturated esters. Under nitrogen, the catalyst solution was added into a 100 mL stainless steel reactor, and the soy methyl esters were added into a substrate delivery cylinder attached to the reactor. […] The average rate of phosphonium ligand degradation product formation was determined using the NMR data.
The hydroformylation of soy oil methyl esters was conducted at 85° C. as an example of the invention to illustrate the effect of temperature on the formation of ligand degradation products. […] The average rate of phosphonium ligand degradation product formation was determined using the NMR data.

[2] = Continuous hydroformylation mini-plant with soy methyl esters; formation rate of phosphonium degradation products (Examples 6-8, Comparative Experiment 6); type: physicochemical
Experimental: The formation rate of phosphonium degradation products was measured in a continuous hydroformylation mini-plant, which consisted of a reaction system comprised of three reactors in series and a product/catalyst separation system with catalyst recycle. The reactors were charged with a catalyst solution containing Ligand A (2.5 wt %) shown in Example 5 hereinabove, Rh(CO)2acac (500 ppm Rh), and 20 wt % 1-methyl-2-pyrrolidone (NMP). A mixture of soy methyl esters was fed continuously to the first reactor. The reactors were operated at 600 psig (4,137 kPa) pressure by continuously feeding a gaseous mixture of carbon monoxide and hydrogen (CO:H2=1:1 vol/vol). The reaction was conducted for 153 hours continuously at 85° C. The formation rate of phosphonium degradation products was measured to be 0.02 g/liter/day during this period. The pressure of carbon monoxide and hydrogen (CO:H2=1:1 vol/vol) was then reduced to 400 psig (2,758 kPa) while keeping the temperature and other conditions unchanged. The reaction was conducted for 59 hours, and the formation rate of phosphonium degradation products was measured to be 0.03 g/liter/day during this period. The results illustrate a low rate of phosphonium formation at a pressure greater than 300 psig, and further that phosphonium formation decreases with increasing pressure.
The formation rate of phosphonium degradation products was measured in a continuous hydroformylation mini-plant similar to the system described in Example 6. The reaction system was charged with a catalyst solution containing Ligand A (2.5 wt %) as shown in Example 5 hereinabove, Rh(CO)2acac (500 ppm Rh), and 20 wt % 1-methyl-2-pyrrolidone (NMP). Soy methyl esters were fed continuously to the reaction system. The reactors were operated at 400 psig (2,758 kPa) pressure by continuously feeding a gaseous mixture of carbon monoxide and hydrogen (CO:H2=1:1 vol/vol). The reaction was conducted continuously for 59 hours with all reactors at 85° C. The formation rate of phosphonium degradation products was measured to be 0.03 g/liter/day during this period.
For comparative purposes, Example 7 was repeated with the exception that the temperature of the last reactor was increased to 100° C. while keeping the temperature of all other reactors at 85° C. All other conditions remained unchanged. The reaction was conducted for 140 hours and the formation rate of phosphonium degradation products was measured to be 0.07 g/liter/day during this period.
The formation rate of phosphonium degradation products was measured in a continuous hydroformylation mini-plant similar to the one described in Example 6. The reaction system was charged with a catalyst solution containing Ligand A (2 wt %), Rh(CO)2acac (300 ppm Rh), and 30 wt % 1-methyl-2-pyrrolidone (NMP). Soy methyl esters, were fed continuously to the reaction system. The reactors were operated at 300 psig (2,068 kPa) pressure by continuously feeding a gaseous mixture of carbon monoxide and hydrogen (CO:H2=1:1 vol/vol). The reaction was conducted continuously for 150 hours at 95° C. The formation rate of phosphonium degradation products were measured to be 0.05 g/liter/day during this period. The pressure of the reaction system was increased to 600 psig (4136 kPa), and the temperature of the reaction system was decreased to 85° C., while keeping all other conditions unchanged. The reaction was conducted for 350 hours and the formation rate of phosphonium degradation products was measured to be 0.02 g/liter/day during this period.

- Phosphonium formation rate Average ([1]; 85° C., initial ligand concentration 0.14 M): 0.04 g/L/day
- Phosphonium formation rate (Average g/L/day) ([1]; 100° C., initial ligand concentration 0.10M): 0.1 g/L/day
- formation rate of phosphonium degradation products ([2]; Comparative Experiment 6, 400 psig, last reactor 100° C., other reactors 85° C., 140 hours): 0.07 g/L/day
- formation rate of phosphonium degradation products ([2]; Example 6, 400 psig, 85° C., 59 hours, Ligand A 2.5 wt %): 0.03 g/L/day
- formation rate of phosphonium degradation products ([2]; Example 6, 600 psig, 85° C., 153 hours, Ligand A 2.5 wt %): 0.02 g/L/day
- formation rate of phosphonium degradation products ([2]; Example 7, 400 psig, all reactors at 85° C., 59 hours, Ligand A 2.5 wt %): 0.03 g/L/day
- formation rate of phosphonium degradation products ([2]; Example 8, 300 psig, 95° C., 150 hours, Ligand A 2 wt %): 0.05 g/L/day
- formation rate of phosphonium degradation products ([2]; Example 8, 600 psig, 85° C., 350 hours, Ligand A 2 wt %): 0.02 g/L/day
Compound: O=S(=O)([O-])c1cccc(P(C2CCCCC2)C2CCCCC2)c1.[Na+] [Ligand A, mono-sulfonated sodium salt of bis(dicyclohexyl)phenylphosphine]
